Measured values reported in ChEMBL document CHEMBL3992485 (Medchemcomm, 2016).
Active and inactive are the calls of the source. No cut-off for these calls is given here.

Key:
HeLa [1] = assay: Cell cycle arrest in human HeLa cells assessed as accumulation at G1 phase at 0.5 uM after 24 hrs by propidium iodide staining based flow cytometry (reference value: 79.19%); type: functional
HeLa [2] = assay: Induction of apoptosis in human HeLa cells assessed as necrotic cells at 0.2 uM after 24 hrs by Annexin-V-FITC/propidium iodide staining based flow cytometry (reference value: 0.084%); type: functional
HeLa [3] = assay: Induction of apoptosis in human HeLa cells assessed as necrotic cells at 0.5 uM after 24 hrs by Annexin-V-FITC/propidium iodide staining based flow cytometry (reference value: 0.35%); type: functional
HeLa [4] = assay: Induction of apoptosis in human HeLa cells assessed as early apoptotic cells at 0.2 uM after 24 hrs by Annexin-V-FITC/propidium iodide staining based flow cytometry (reference value: 2.41%); type: functional
HeLa [5] = assay: Cell cycle arrest in human HeLa cells assessed as accumulation at G1 phase at 0.8 uM after 12 hrs by propidium iodide staining based flow cytometry (reference value: 85.81%); type: functional
HeLa [6] = assay: Induction of apoptosis in human HeLa cells assessed as late apoptotic cells at 0.5 uM after 36 hrs by Annexin-V-FITC/propidium iodide staining based flow cytometry (reference value: 2.64%); type: functional
HeLa [7] = assay: Cell cycle arrest in human HeLa cells assessed as accumulation at S phase at 0.5 uM after 24 hrs by propidium iodide staining based flow cytometry (reference value: 33.78%); type: functional
HeLa [8] = assay: Induction of apoptosis in human HeLa cells assessed as early apoptotic cells at 0.4 uM after 24 hrs by Annexin-V-FITC/propidium iodide staining based flow cytometry (reference value: 2.41%); type: functional
HeLa [9] = assay: Induction of apoptosis in human HeLa cells assessed as early apoptotic cells at 0.1 uM after 24 hrs by Annexin-V-FITC/propidium iodide staining based flow cytometry (reference value: 2.41%); type: functional
HeLa [10] = assay: Induction of apoptosis in human HeLa cells assessed as viable cells at 0.5 uM after 12 hrs by Annexin-V-FITC/propidium iodide staining based flow cytometry (reference value: 91%); type: functional; settings: read-out: Activity
HeLa [11] = assay: Cell cycle arrest in human HeLa cells assessed as accumulation at G1 phase at 0.4 uM after 12 hrs by propidium iodide staining based flow cytometry (reference value: 85.81%); type: functional
HeLa [12] = assay: Induction of apoptosis in human HeLa cells assessed as necrotic cells at 0.1 uM after 24 hrs by Annexin-V-FITC/propidium iodide staining based flow cytometry (reference value: 0.084%); type: functional
MCF7 = assay: Antiproliferative activity against human MCF7 cells measured after 24 hrs by MTT assay; type: functional, cell-based; settings: MCF7, 24 h
HeLa [13] = assay: Inhibition of microtubule polymerization in human HeLa cells at 0.2 uM after 24 hrs by DAPI staining based confocal microscopic analysis; type: cell-based
HeLa [14] = assay: Induction of apoptosis in human HeLa cells assessed as early apoptotic cells at 0.8 uM after 24 hrs by Annexin-V-FITC/propidium iodide staining based flow cytometry (reference value: 2.41%); type: functional
HeLa [15] = assay: Induction of apoptosis in human HeLa cells assessed as late apoptotic cells at 0.5 uM after 12 hrs by Annexin-V-FITC/propidium iodide staining based flow cytometry (reference value: 2.64%); type: functional
[16] = Antiproliferative activity against human 293T cells measured after 24 hrs by MTT assay; type: cell-based; settings: 293T (HEK-293T) cells
HeLa [17] = assay: Cell cycle arrest in human HeLa cells assessed as accumulation at S phase at 0.1 uM after 24 hrs by propidium iodide staining based flow cytometry (reference value: 49.41%); type: functional
HepG2 = assay: Antiproliferative activity against human HepG2 cells measured after 24 hrs by MTT assay; type: functional, cell-based; settings: HepG2, 24 h
HeLa [18] = assay: Cell cycle arrest in human HeLa cells assessed as accumulation at G2/M phase at 0.5 uM after 36 hrs by propidium iodide staining based flow cytometry (reference value: 8.14%); type: functional
HeLa [19] = assay: Induction of apoptosis in human HeLa cells assessed as late apoptotic cells at 0.4 uM after 24 hrs by Annexin-V-FITC/propidium iodide staining based flow cytometry (reference value: 3.1%); type: functional
HeLa [20] = assay: Induction of apoptosis in human HeLa cells assessed as necrotic cells at 0.8 uM after 24 hrs by Annexin-V-FITC/propidium iodide staining based flow cytometry (reference value: 0.084%); type: functional
HeLa [21] = assay: Cell cycle arrest in human HeLa cells assessed as accumulation at G2/M phase at 0.5 uM after 12 hrs by propidium iodide staining based flow cytometry (reference value: 8.14%); type: functional
HeLa [22] = assay: Cell cycle arrest in human HeLa cells assessed as accumulation at G2/M phase at 0.1 uM after 24 hrs by propidium iodide staining based flow cytometry (reference value: 2.15%); type: functional
HeLa [23] = assay: Cell cycle arrest in human HeLa cells assessed as accumulation at G2/M phase at 0.5 uM after 24 hrs by propidium iodide staining based flow cytometry (reference value: 8.14%); type: functional
HeLa [24] = assay: Induction of apoptosis in human HeLa cells assessed as necrotic cells at 0.4 uM after 24 hrs by Annexin-V-FITC/propidium iodide staining based flow cytometry (reference value: 0.084%); type: functional
HeLa [25] = assay: Induction of apoptosis in human HeLa cells assessed as early apoptotic cells at 0.5 uM after 12 hrs by Annexin-V-FITC/propidium iodide staining based flow cytometry (reference value: 6.02%); type: functional
HeLa [26] = assay: Induction of apoptosis in human HeLa cells assessed as late apoptotic cells at 0.5 uM after 24 hrs by Annexin-V-FITC/propidium iodide staining based flow cytometry (reference value: 2.64%); type: functional
HeLa [27] = assay: Induction of apoptosis in human HeLa cells assessed as early apoptotic cells at 0.5 uM after 24 hrs by Annexin-V-FITC/propidium iodide staining based flow cytometry (reference value: 6.02%); type: functional
HeLa [28] = assay: Induction of apoptosis in human HeLa cells assessed as viable cells at 0.8 uM after 24 hrs by Annexin-V-FITC/propidium iodide staining based flow cytometry (reference value: 94.4%); type: functional; settings: read-out: Activity
HeLa [29] = assay: Inhibition of microtubule polymerization in human HeLa cells assessed as abnormal chromatin distribution at 0.2 uM after 24 hrs by DAPI staining based confocal microscopic analysis; type: cell-based
HeLa [30] = assay: Antiproliferative activity against human HeLa cells measured after 24 hrs by MTT assay; type: functional, cell-based
[31] = Inhibition of tubulin polymerization in bovine brain assessed as reduction in tubulin assembly after 20 mins by spectrophotometric method; parameters: species or system Bos taurus
HeLa [32] = assay: Cell cycle arrest in human HeLa cells assessed as accumulation at G2/M phase at 0.5 uM by propidium iodide staining based flow cytometry; type: functional; settings: TDE = time-dependent effect
HeLa [33] = assay: Induction of apoptosis in human HeLa cells assessed as viable cells at 0.1 uM after 24 hrs by Annexin-V-FITC/propidium iodide staining based flow cytometry (reference value: 94.4%); type: functional; settings: read-out: Activity
HeLa [34] = assay: Cell cycle arrest in human HeLa cells assessed as accumulation at G1 phase at 0.2 uM after 12 hrs by propidium iodide staining based flow cytometry (reference value: 85.81%); type: functional
HeLa [35] = assay: Induction of apoptosis in human HeLa cells assessed as necrotic cells at 0.5 uM after 12 hrs by Annexin-V-FITC/propidium iodide staining based flow cytometry (reference value: 0.35%); type: functional

IC50 (MCF7): 350 nM | IC50 (HepG2): 490 nM | IC50 (HeLa [30]): 240 nM | IC50 [31]: 1820 nM
SMILES: CCn1cc(C(=O)N2CCN(S(=O)(=O)c3c(C(C)C)cc(C(C)C)cc3C(C)C)CC2)c2ccccc21
Activity (HeLa [1]): 5.23% | Activity (HeLa [2]): 0.098% | Activity (HeLa [3]): 0.303% | Activity (HeLa [4]): 21.7% | Activity (HeLa [5]): 10.02% | Activity (HeLa [6]): 21.2% | Activity (HeLa [7]): 55.73% | Activity (HeLa [8]): 23.1% | Activity (HeLa [9]): 9% | viability at 0.5 µM (HeLa [10]): 87.9% | Activity (HeLa [11]): 22.09% | Activity (HeLa [12]): 0.141% | inhibition (HeLa [13]): Active | Activity (HeLa [14]): 32.6% | Activity (HeLa [15]): 3.97% | CC50 at 24 h [16]: 424000 nM | Activity (HeLa [17]): 49.47% | Activity (HeLa [18]): 65.29% | Activity (HeLa [19]): 12.8% | Activity (HeLa [20]): 1.05% | Activity (HeLa [21]): 18.43% | Activity (HeLa [22]): 15.09% | Activity (HeLa [23]): 54.57% | Activity (HeLa [24]): 0.581% | Activity (HeLa [25]): 8.12% | Activity (HeLa [26]): 6.84% | Activity (HeLa [27]): 20.1% | viability at 0.8 µM (HeLa [28]): 44% | inhibition (HeLa [29]): Active | Activity (HeLa [32]): Tde | viability at 0.1 µM (HeLa [33]): 85.1% | Activity (HeLa [34]): 31.86% | Activity (HeLa [35]): 0.03%
